This note sets out measurements from patent US6251897A, “6-phenyltetrahydro-1,3-oxazin-2-one derivative and pharmaceutical composition containing the same” (Nikken Chemicals Co., LTD, priority 1996, dated 2001).

The assay concerns Type IV PDE. As to the kind of experiment: PDE inhibitory activity, type IV isozyme (3H-cAMP hydrolysis). In kind it is biochemical. The settings on record: partially purified from rat neutrophils, 30° C., 30 minutes. The procedure:
Type I, III, IV, and V PDE isozymes were prepared to study the PDE inhibitory activities and selectivities with the compound of the invention [Trends Pharmacol. Sci., 12, 19-27 (1992)]. Type I PDE was purchased from Sigma Corp. Type III, IV, and V PDE isozymes were partially purified from rats platelets (Type III and V) or neutrophils (Type IV). Each enzyme source was homogenized in a buffer (pH 6.5) containing 20 mM bisTris, 2 mM EDTA (ethylenediamine tetraacetate), 0.1 mM PMSF (phenylmethylsulfonyl fluoride), 5 mM 2-mercaptoethanol, 0.001 mM pepstatin, and 0.01 mM leupeptin and was centrifuged at 30,000×G for 30 minutes to obtain a supernatant, which was applied to an ion exchange column (Q-sepharose First Flow, Pharmacia Corp.) and was eluted with 0 to 1M sodium acetate. Partially purified isozymes were identified by observing the effects of conventional inhibitors.
Each PDE isozyme and the test compound dissolved in DMSO (dimethyl sulfoxide) were added to 50 mM Tris-HCl buffer containing 5 mM magnesium chloride. ^3 H-cAMP (for type III and IV PDE) or ^3 H-cGMP (for type I and V PDE) were added as substrates and were reacted at 30° C. for 30 minutes. The reaction was terminated by placing the test tube in boiling water of 100° C. for 5 minutes. The nucleotides formed by PDE were broken down by 5'-nucleotidase to ^3 H-adenosine or ^3 H-guanosine. The unreacted substrate and reaction product were separated through an ion-exchange column (QAE sephadex, Pharmacia Corp.) The eluted ^3 H-nucleoside was measured for its radioactivity by a liquid scintillation counter. The inhibiting activities of the compound of the present invention are shown by the IC50 value (M). Further, the inhibitory activities of the test samples against Type I, III, and V are 1/10 or less than that against type IV.

With `CCCCOc1cc(C2(C)CCN(C)C(=O)O2)ccc1OC` (stereo not drawn) [Compound No. 54, 6-(3-butoxy-4-methoxyphenyl)-3,6-dimethyl-3,4,5,6-tetrahydro-2H-1,3-oxazin-2-one], the IC50 (commonly the concentration that inhibits the measured activity by half) was found to be 2 µM. This lies in the single-digit micromolar range.

The compound `COc1ccc(C2CCNC(=O)O2)cc1OCCc1ccccn1` (stereo not drawn) [Compound No. 55, 6-[4-methoxy-3-[2-(2-pyridyl)ethoxy]phenyl]-3,4,5,6-tetrahydro-2H-1,3-oxazin-2-one] registered an IC50 of 1.7 µM.

`COc1ccc(C2CCNC(=O)O2)cc1OC1c2ccccc2CCc2ccccc21` (stereo not drawn) [Compound No. 58, 6-[3-(10,11-dihydro-5H-dibenzo[a,d]cyclohepten-5-yloxy)-4-methoxyphenyl]-3,4,5,6-tetrahydro-2H-1,3-oxazin-2-one] displayed an IC50 of 9.4 µM.

As to `COc1ccc(C2CCN(C)C(=O)O2)cc1OC1c2ccccc2CCc2ccccc21` (stereo not drawn) [Compound No. 59, 6-[3-(10,11-dihydro-5H-dibenzo[a,d]cyclohepten-5-yloxy)-4-methoxyphenyl]-3-methyl-3,4,5,6-tetrahydro-2H-1,3-oxazin-2-one], the IC50 amounted to 27 µM. To `COc1ccc(C2CCNC(=O)O2)cc1OCCCN1CCN(Cc2ccccc2)CC1` (stereo not drawn) [Compound No. 60, 6-[3-[3-(4-benzyl-1-piperazinyl)propoxy]-4-methoxyphenyl]-3,4,5,6-tetrahydro-2H-1,3-oxazin-2-one] belongs 52 µM; to `COc1ccc(C2CCN(C)C(=O)O2)cc1OCC1CCC1` (stereo not drawn) [Compound No. 62, 6-(3-cyclobutylmethyloxy-4-methoxyphenyl)-3-methyl-3,4,5,6-tetrahydro-2H-1,3-oxazin-2-one], 3.3 µM. The compound `COc1ccc(C2CCNC(=O)O2)cc1OCC1(C)CC1` (stereo not drawn) [Compound No. 63, 6-[4-methoxy-3-[(1-methylcyclopropyl)methyloxy]phenyl]-3,4,5,6-tetrahydro-2H-1,3-oxazin-2-one] came in with an IC50 of 3.4 µM. On to `COc1ccc(C2CCN(C)C(=O)O2)cc1OCC1(C)CC1` (stereo not drawn) [Compound No. 64, 6-[4-methoxy-3-[(1-methylcyclopropyl)methyloxy]phenyl]-3-methyl-3,4,5,6-tetrahydro-2H-1,3-oxazin-2-one], for which the IC50 came to 4.6 µM. Regarding `COc1ccc(C2CCNC(=O)O2)cc1OCCc1cccc2ccccc12` (stereo not drawn) [Compound No. 67, 6-[4-methoxy-3-[2-(1-naphthyl)ethoxy]phenyl]-3,4,5,6-tetrahydro-2H-1,3-oxazin-2-one], the IC50 stood at 1.1 µM. To `COc1ccc(C2CCN(C)C(=O)O2)cc1OCCc1cccc2ccccc12` (stereo not drawn) [Compound No. 68, 6-[4-methoxy-3-[2-(1-naphthyl)ethoxy]phenyl]-3-methyl-3,4,5,6-tetrahydro-2H-1,3-oxazin-2-one] belongs 2.6 µM. In turn, `CCC(CC)COc1cc(C2CCNC(=O)O2)ccc1OC` (stereo not drawn) [Compound No. 69, 6-[3-(2-ethylbutoxy)-4-methoxyphenyl]-3,4,5,6-tetrahydro-2H-1,3-oxazin-2-one] had an IC50 of 5 µM. The same measure for `CCC(CC)COc1cc(C2CCN(C)C(=O)O2)ccc1OC` (stereo not drawn) [Compound No. 70, 6-[3-(2-ethylbutoxy)-4-methoxyphenyl]-3-methyl-3,4,5,6-tetrahydro-2H-1,3-oxazin-2-one]: 3.5 µM; for `COc1ccc(C2CCNC(=O)O2)cc1OCCc1scnc1C` (stereo not drawn) [Compound No. 72, 6-[4-methoxy-3-[2-(4-methyl-5-thiazolyl)ethoxy]phenyl]-3,4,5,6-tetrahydro-2H-1,3-oxazin-2-one]: 8.3 µM; for `COc1ccc(C2CCNC(=O)O2)cc1OCCc1ccc(F)cc1` (stereo not drawn) [Compound No. 74, 6-[3-[2-(4-fluorophenyl)ethoxy]-4-methoxyphenyl]-3,4,5,6-tetrahydro-2H-1,3-oxazin-2-one]: 1.3 µM.

`COc1ccc(C2CCN(C)C(=O)O2)cc1OCCc1ccc(F)cc1` (stereo not drawn) [Compound No. 75, 6-[3-[2-(4-fluorophenyl)ethoxy]-4-methoxyphenyl]-3-methyl-3,4,5,6-tetrahydro-2H-1,3-oxazin-2-one] came in with an IC50 of 1.8 µM. In the case of `COc1ccc(C2CCN(C)C(=O)O2)cc1OCC1CCCC1` (stereo not drawn) [Compound No. 77, 6-(3-cyclopentylmethyloxy-4-methoxyphenyl)-3-methyl-3,4,5,6-tetrahydro-2H-1,3-oxazin-2-one], half-maximal inhibition (IC50) was put at 3.3 µM.

Compound `COc1ccc(C2CCNC(=O)O2)cc1OC1(C)CCCC1` (stereo not drawn) [Compound No. 80, 6-[4-methoxy-3-(1-methylcyclopentyloxy)phenyl]-3,4,5,6-tetrahydro-2H-1,3-oxazin-2-one] showed an IC50 of 1.5 µM.

Compound `COc1ccc(C2CCNC(=O)O2)cc1OCCOCc1ccccc1` (stereo not drawn) [Compound No. 83, 6-[3-(2-benzyloxyethoxy)-4-methoxyphenyl]-3,4,5,6-tetrahydro-2H-1,3-oxazin-2-one] displayed an IC50 of 3.4 µM. Compound `COc1ccc(C2CCN(C)C(=O)O2)cc1OCCOCc1ccccc1` (stereo not drawn) [Compound No. 84, 6-[3-(2-benzyloxyethoxy)-4-methoxyphenyl]-3-methyl-3,4,5,6-tetrahydro-2H-1,3-oxazin-2-one] had an IC50 of 3.1 µM. `COc1ccc(C2OC(=O)NCC2(C)C)cc1OC1CCCC1` (stereo not drawn) [Compound No. 85, 6-(3-cyclopentyloxy-4-methoxyphenyl)-5,5-dimethyl-3,4,5,6-tetrahydro-2H-1,3-oxazin-2-one] yielded an IC50 of 0.78 µM. The same measure for `COc1ccc(C2OC(=O)N(C)CC2(C)C)cc1OC1CCCC1` (stereo not drawn) [Compound No. 86, 6-(3-cyclopentyloxy-4-methoxyphenyl)-3,5,5-trimethyl-3,4,5,6-tetrahydro-2H-1,3-oxazin-2-one]: 0.86 µM; for `COc1ccc(C2OC(=O)NCC2(C)C)cc1OC1Cc2ccccc2C1` (stereo not drawn) [Compound No. 87, 5,5-dimethyl-6-[3-(2-indanyloxy)-4-methoxyphenyl]-3,4,5,6-tetrahydro-2H-1,3-oxazin-2-one]: 0.088 µM; for `COc1ccc(C2OC(=O)N(C)CC2(C)C)cc1OC1Cc2ccccc2C1` (stereo not drawn) [Compound No. 88, 6-[3-(2-indanyloxy)-4-methoxyphenyl]-3,5,5-trimethyl-3,4,5,6-tetrahydro-2H-1,3-oxazin-2-one]: 0.19 µM. To `COc1ccc(C2CCNC(=O)O2)cc1OC1CCN(Cc2ccccc2)CC1` (stereo not drawn) [Compound No. 89, 6-[3-(1-benzyl-4-piperidyloxy)-4-methoxyphenyl]-3,4,5,6-tetrahydro-2H-1,3-oxazin-2-one] belongs 35 µM.

As for `COc1ccc(C2CCNC(=O)O2)cc1OCCOCC1CC1` (stereo not drawn) [Compound No. 90, 6-[3-[2-(cyclopropylmethyloxy)ethoxy]-4-methoxyphenyl]-3,4,5,6-tetrahydro-2H-1,3-oxazin-2-one], the IC50 was found to be 1.9 µM. `COc1ccc(C2CCNC(=O)O2)cc1OC1CCOC1` (stereo not drawn) [Compound No. 93, 6-[3-(3-tetrahydrofuryloxy)-4-methoxyphenyl]-3,4,5,6-tetrahydro-2H-1,3-oxazin-2-one] registered an IC50 of 3.7 µM. Regarding `COc1ccc(C2CCN(C)C(=O)O2)cc1OCCc1scnc1C` (stereo not drawn) [compound 73, 6-[4-methoxy-3-[2-(4-methyl-5-thiazolyl)ethoxy]phenyl]-3-methyl-3,4,5,6-tetrahydro-2H-1,3-oxazin-2-one], the IC50 came to 7.3 µM.
